Results taken from publication PMC11188305, “Reproductive and fetal toxicity studies of histamine H3 receptor antagonist DL76 used in mice to prevent maximal electroshock-induced seizure” (Frontiers in Pharmacology, 2024).

What was measured:
adrenergic α2 receptor = adrenergic α2 receptor binding, [3H]clonidine in rat cerebral cortex; details: protocol of Canale et al., 2021
hH2R = biological target: T1, hH2R (Homo sapiens, UniProt P25021); assay: hH2R radioligand binding, [125I]APT in CHO cells (Eurofins Cerep)
T1 construct: host or cells: CHO cells
T1 sequence (P25021 whole entry): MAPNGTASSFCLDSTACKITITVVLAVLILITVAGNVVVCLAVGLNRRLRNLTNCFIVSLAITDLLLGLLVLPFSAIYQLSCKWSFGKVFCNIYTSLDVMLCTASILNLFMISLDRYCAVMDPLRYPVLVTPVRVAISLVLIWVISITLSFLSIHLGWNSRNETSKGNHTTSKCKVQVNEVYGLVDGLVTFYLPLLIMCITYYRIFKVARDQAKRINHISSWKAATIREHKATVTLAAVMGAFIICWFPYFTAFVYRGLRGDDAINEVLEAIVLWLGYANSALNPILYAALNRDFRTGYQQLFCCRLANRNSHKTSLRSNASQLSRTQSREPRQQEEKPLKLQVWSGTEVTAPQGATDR

hH1R = biological target: T2, hH1R (Homo sapiens, UniProt P35367); assay: hH1R radioligand binding, [3H]pyrilamine in CHO K1 cells; details: protocol of Lazewska et al., 2017
T2 construct: expressed in transfected cells; host or cells: CHO K1 cells
T2 sequence (P35367 whole entry): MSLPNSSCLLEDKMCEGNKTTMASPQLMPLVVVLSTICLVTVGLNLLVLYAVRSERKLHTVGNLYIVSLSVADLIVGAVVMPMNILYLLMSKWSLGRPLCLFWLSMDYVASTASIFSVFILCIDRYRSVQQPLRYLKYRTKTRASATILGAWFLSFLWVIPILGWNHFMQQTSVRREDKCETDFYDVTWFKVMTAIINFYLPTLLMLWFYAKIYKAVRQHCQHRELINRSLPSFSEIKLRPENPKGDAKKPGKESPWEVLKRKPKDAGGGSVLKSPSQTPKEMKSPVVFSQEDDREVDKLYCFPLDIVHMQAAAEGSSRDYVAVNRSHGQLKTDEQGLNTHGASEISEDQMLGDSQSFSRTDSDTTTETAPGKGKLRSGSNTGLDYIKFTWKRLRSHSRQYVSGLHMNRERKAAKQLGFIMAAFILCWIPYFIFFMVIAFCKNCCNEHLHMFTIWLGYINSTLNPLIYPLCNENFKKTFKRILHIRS

hH3R = biological target: hH3R; design: method as in Lazewska et al. (2006); details: CHO K1 cells; [125I]Iodoproxyfan binding assay; ref Lazewska et al. (2006); cited from earlier work

CC(C)(C)c1ccc(OCCCN2CCCCC2)cc1 [DL76, 1-(3-(4-tert-butyl-phenoxy)propyl) piperidine]
Ki (adrenergic α2 receptor): > 5000 nM
inhibition at 1 µM (hH2R): 2.8%
Ki (hH1R): 849 ± 67 nM
Ki (hH3R): 22 nM
